{"source": "patent US20090054507A1", "about": "“CONTROL OF MALIGNANT CELLS BY KINASE INHIBITION” (CLEVELAND STATE UNIVERSITY, priority 2006, published 2009)", "key": {"MEG-01 xenografts": {"system": "MEG-01 xenografts", "assay": "Tail-bleeding assay in MEG-01 xenograft mice", "assay_type": "in vivo", "conditions": "DMAT treated xenograft mice vs normal mice or control mice", "description": "At the end of the trial, tail-bleeding times assay was performed and blood was collected for blood counts from live and anesthetized mice. After these experiments were completed mice were sacrificed and tumors and organs were collected. Samples were fixed in formalin for further processing.\nTail-bleeding assay. Tail-bleeding times are important to investigate whether the platelets could establish hemostasis in vivo. Platelet aggregation and clot retraction in response to physiologic agonists adenosine diphosphate (ADP), epinephrine, and thrombin will affect tail-bleeding times.\nNormal tail-bleeding times are an average of 1.5-2 minutes in C57BL mouse strain.\nPre-warm tubes of saline (PBS) at 37° C. and maintained at this temperature during the measurements were used. Inhalation of isoflurane vapor or, alternatively, intraperitoneal injection of avertin was used to induce general anesthesia. Using a sharp new razor or scalpel blade, tails were cut exactly 0.5 cm of the distal tip of the tail of the adult mouse and immediately inserted into the pre-warmed tube of saline. A stopclock was started at this time. The tail was hold gently, near its base, to avoid a “tourniquet effect.” Venous blood flowing into the tube can be observed and can it can be detected when this bleeding stops. The stopclock provides an accurate bleeding time."}, "MCF-7 xenografts": {"system": "MCF-7 xenografts", "assay": "In vivo therapy of MCF-7 xenografts, tumor volume", "set-up": "species or system mice", "source_text": "(§1) Creation of the xenografts MCF-7, SW-480 and WM-164. Immunodeficient male and female athymic nude nu/nu mice were used, provided and housed by Dr. Lindner, DJ from Taussig Cancer Center, Cleveland Clinic and Case Western Reserve University. Mice were checked every day. Mice were housed in filtered air flow cabinets with autoclaved bedding at a density of 5 mice/cage. They were fed autoclaved Purina Lab Rodent Chow® 5010 and HCl-acidified distilled water ad libitum and were placed in rooms with controlled temperature, humidity and 12-hr light-dark cycles. Procedures involving animals and their care were conducted in conformity with the institutional guidelines that are in compliance with national and international laws and policies (EEC Council Directive 86/609, OJL 358, Dec. 1, 1987, and the National Institutes of Health Guide for the Care and Use of Laboratory, Animals, NIH Publication 85-23, 1985).\n(§2) For engraftment, cells in cell culture media were injected. […] Cells were counted with a hemacytometer using Trypan blue (only live cells were counted). […]\nIn vivo therapy with DMAT of MCF-7 xenografts. […] Tumor diameters were measured using a caliper and tumor volume was calculated using the prolate-spheroid formula. […]"}, "SW-480 xenografts": {"system": "SW-480 xenografts", "assay": "In vivo therapy of SW-480 xenografts, tumor volume", "set-up": "species or system mice", "source_text": "as §1, §2\nIn vivo therapy with DMAT of SW-480 xenografts. […] Tumor diameters were measured using a caliper and tumor volume was calculated using the prolate-spheroid formula. […]"}, "tumor tissue and organs": {"system": "tumor tissue and organs", "assay": "Hematoxylin & eosin staining of tumor tissue and organs of treated xenograft mice (all cell lines)", "assay_type": "in vivo", "description": "Hematoxylin & eosin staining of tumor tissue and organs. After euthanasia with CO2, mice were supposed to necropsy. Tumors were collected from under the skin from both flanks and were measured for the last time and then fixed in formalin fixative. Spleen, liver, kidney, brain, lungs and legs were collected and fixed. Spleens were also measured (as length, […]). Fresh tissue was immersed immediately into liquid nitrogen and kept frozen at −80° C. Fixed tissue was embedded in paraffin and next processed for H&E (the basic dye hematoxylin, and the alcohol-based synthetic material, eosin) by the Cleveland Clinic Histology Core facility. Sections (4-μm thick) were stained with hematoxylin and eosin and evaluated for pathologic changes in a blinded fashion. H&E staining gives morphological information (vascularization, normal proliferating tissue, necrosis and apoptosis of the tissue)."}, "[1]": {"conditions": "25 mg/kg twice daily, injections in mice; cited from earlier work"}}}
{"smiles": "CN(C)c1nc2c(Br)c(Br)c(Br)c(Br)c2[nH]1", "note": "[DMAT, 2-dimethylamino-4,5,6,7-tetrabromo-1H-benzimidazole]", "values": [{"measurement": "tail bleeding times", "setting": "MEG-01 xenografts", "value": "in certain instances, longer"}, {"measurement": "tumor volume", "setting": "MCF-7 xenografts; DMAT 10 mg/kg (in DMSO) per day, 13 day period, control about 50 to about 1750 mm^3", "value": "remarkably stable size and nearly no increase"}, {"measurement": "response of xenograft tumors to treatment (summary)", "setting": "MCF-7 xenografts; mouse, in vivo", "value": "tumor ablation"}, {"measurement": "tumor volume", "setting": "SW-480 xenografts; DMAT 40 mg/kg (in DMSO) per day, thirteen days, control about 260 to about 1800 mm^3", "value": "only a minor increase in tumor volume"}, {"measurement": "response of xenograft tumors to treatment (summary)", "setting": "SW-480 xenografts; small tumors remained at the end of the treatment", "value": "significant reduction in tumor volume"}, {"measurement": "necrotic and apoptotic areas of tumors from treated mice vs untreated (DMSO) control tumors", "setting": "tumor tissue and organs; all tumors, hematoxylin-eosin staining", "value": "high necrotic and apoptotic areas"}, {"measurement": "other organs of treated mice, hematoxylin-eosin staining", "setting": "tumor tissue and organs; mouse, in vivo", "value": "appeared normal"}, {"measurement": "effect on the kidney, bone marrow, and liver as assessed histologically", "setting": "[1]", "value": "had no effect"}]}
